These results are taken from paper PMC5513037, “Examining the influence of specificity ligands and ATP-competitive ligands on the overall effectiveness of bivalent kinase inhibitors” (Proteome Science, 2017).

pIC50: −log10 of the molar value.

One assay concerns the target NRBP1 (Homo sapiens, UniProt Q9UHY1). Kind of assay: biochemical.
Assay [1] deals with T1, ATM (Homo sapiens, UniProt Q13315). Kind of assay: biochemical.
Description: (§2) Data were visualized for further analysis using Spotfire DXP.
The target of the next assay is T2, PIK3R4 (Homo sapiens, UniProt Q99570).
T2 construct: endogenous in cells; host or cells: K562
As to the kind of experiment: Imatinib-matrix competition in K562 lysate. In kind it is binding. Particulars: read-out: RB50 (the source's name).

In a further assay the target is PSKH2 (Homo sapiens, UniProt Q96QS6). As to the kind of experiment: biochemical.
Sequence of PSKH2 (Q96QS6 whole entry): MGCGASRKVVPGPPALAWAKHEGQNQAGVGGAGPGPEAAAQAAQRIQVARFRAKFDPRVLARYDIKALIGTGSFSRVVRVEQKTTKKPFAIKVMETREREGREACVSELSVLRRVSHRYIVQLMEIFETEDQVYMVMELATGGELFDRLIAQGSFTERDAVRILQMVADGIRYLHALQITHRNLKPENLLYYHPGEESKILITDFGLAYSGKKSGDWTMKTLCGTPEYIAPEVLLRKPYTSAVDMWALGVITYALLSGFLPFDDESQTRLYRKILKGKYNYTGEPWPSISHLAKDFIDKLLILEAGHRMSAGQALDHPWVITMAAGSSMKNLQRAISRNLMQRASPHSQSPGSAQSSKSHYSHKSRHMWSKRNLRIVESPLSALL
Assay [2] addresses T1, ATM. As to the kind of experiment: KAM-matrix competition in K562 lysate. Type of assay: binding. Also noted: endogenous in cells; host or cells: K562. The protocol:
(§1) Supplement 12953_2017_125_MOESM1_ESM.zip/MS_Supp Info.xlsx, sheet "KAM" | column: 10 uM KAM; 1 uM KAM; 0.1 uM KAM; 0.01 uM KAM; 0.001 uM KAM; RB50

The next assay addresses T3, SCYL1 (Homo sapiens, UniProt Q96KG9).
T3 sequence (Q96KG9 1-808): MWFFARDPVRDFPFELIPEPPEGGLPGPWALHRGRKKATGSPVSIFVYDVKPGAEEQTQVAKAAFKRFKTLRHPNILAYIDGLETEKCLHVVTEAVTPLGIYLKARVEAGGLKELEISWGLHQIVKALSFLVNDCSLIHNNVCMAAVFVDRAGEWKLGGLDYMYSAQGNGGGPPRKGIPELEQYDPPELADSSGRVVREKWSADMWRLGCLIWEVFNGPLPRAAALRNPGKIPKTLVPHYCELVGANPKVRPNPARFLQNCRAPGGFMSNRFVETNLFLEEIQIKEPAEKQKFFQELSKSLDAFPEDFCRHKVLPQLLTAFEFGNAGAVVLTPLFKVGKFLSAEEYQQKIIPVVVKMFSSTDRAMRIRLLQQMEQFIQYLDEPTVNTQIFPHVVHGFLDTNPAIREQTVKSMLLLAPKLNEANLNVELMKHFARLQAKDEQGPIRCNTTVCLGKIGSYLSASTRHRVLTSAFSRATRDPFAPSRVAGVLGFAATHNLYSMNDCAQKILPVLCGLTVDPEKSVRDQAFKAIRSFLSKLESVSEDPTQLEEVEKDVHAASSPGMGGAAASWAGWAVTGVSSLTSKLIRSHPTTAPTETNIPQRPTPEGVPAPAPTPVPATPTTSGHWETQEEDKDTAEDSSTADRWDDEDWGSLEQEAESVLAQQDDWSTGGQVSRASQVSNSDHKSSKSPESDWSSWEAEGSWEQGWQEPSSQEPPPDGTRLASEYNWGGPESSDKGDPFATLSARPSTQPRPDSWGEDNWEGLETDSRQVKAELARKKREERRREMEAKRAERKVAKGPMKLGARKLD
As to the kind of experiment: KAM-matrix competition in K562 lysate. Type of assay: binding. Details: endogenous in cells; host or cells: K562. The procedure:
as §1

A further assay deals with T4, GUCY2F (Homo sapiens, UniProt P51841).
T4 construct: endogenous in cells; host or cells: K562
T4 sequence (P51841 51-1108): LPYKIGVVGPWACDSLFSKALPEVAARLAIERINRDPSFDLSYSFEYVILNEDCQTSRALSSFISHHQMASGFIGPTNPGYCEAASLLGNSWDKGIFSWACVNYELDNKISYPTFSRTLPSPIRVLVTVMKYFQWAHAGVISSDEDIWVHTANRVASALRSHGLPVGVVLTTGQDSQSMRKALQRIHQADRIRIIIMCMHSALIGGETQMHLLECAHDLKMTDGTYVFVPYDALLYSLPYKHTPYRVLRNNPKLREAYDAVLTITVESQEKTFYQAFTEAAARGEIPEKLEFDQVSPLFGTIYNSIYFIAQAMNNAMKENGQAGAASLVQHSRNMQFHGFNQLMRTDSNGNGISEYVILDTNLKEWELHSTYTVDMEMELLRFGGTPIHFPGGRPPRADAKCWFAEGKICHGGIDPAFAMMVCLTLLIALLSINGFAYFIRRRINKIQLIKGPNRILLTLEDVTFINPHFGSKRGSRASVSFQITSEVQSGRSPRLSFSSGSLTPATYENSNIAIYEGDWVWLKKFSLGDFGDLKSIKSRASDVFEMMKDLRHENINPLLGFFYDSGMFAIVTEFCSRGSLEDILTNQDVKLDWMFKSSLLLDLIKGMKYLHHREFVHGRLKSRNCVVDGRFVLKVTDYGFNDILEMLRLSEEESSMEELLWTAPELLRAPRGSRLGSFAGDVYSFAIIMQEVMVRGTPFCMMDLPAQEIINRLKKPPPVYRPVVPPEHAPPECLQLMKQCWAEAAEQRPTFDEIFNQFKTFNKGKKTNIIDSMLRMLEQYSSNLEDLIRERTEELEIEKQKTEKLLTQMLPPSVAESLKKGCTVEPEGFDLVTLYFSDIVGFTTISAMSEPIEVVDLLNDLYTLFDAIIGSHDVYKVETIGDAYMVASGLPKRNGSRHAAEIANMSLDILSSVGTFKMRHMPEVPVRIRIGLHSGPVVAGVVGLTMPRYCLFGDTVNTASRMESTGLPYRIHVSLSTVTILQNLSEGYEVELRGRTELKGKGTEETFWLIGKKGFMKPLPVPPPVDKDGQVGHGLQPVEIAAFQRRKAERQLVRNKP
Kind of assay: KAM-matrix competition in K562 lysate. Type of assay: binding. The protocol:
as §1

Another assay has as its target T5, PRKACG (Homo sapiens, UniProt P22612).
T5 construct: endogenous in cells; host or cells: K562
As to the kind of experiment: KAM-matrix competition in K562 lysate. Type of assay: binding. The procedure: as §1

[3] abbreviates: KAM 0.001-10 uM, read-out: RB50 (the source's name).
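Wherever 0.001 uM KAM is given: median log10 fold change of treatment over DMSO control.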
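Wherever 0.01 uM KAM is given: median log10 fold change of treatment over DMSO control.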
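Wherever 0.1 uM KAM is given: median log10 fold change of treatment over DMSO control.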
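Wherever 1 uM KAM is given: median log10 fold change of treatment over DMSO control.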
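Wherever 10 uM KAM is given: median log10 fold change of treatment over DMSO control.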

T1 sequence (Q13315 whole entry): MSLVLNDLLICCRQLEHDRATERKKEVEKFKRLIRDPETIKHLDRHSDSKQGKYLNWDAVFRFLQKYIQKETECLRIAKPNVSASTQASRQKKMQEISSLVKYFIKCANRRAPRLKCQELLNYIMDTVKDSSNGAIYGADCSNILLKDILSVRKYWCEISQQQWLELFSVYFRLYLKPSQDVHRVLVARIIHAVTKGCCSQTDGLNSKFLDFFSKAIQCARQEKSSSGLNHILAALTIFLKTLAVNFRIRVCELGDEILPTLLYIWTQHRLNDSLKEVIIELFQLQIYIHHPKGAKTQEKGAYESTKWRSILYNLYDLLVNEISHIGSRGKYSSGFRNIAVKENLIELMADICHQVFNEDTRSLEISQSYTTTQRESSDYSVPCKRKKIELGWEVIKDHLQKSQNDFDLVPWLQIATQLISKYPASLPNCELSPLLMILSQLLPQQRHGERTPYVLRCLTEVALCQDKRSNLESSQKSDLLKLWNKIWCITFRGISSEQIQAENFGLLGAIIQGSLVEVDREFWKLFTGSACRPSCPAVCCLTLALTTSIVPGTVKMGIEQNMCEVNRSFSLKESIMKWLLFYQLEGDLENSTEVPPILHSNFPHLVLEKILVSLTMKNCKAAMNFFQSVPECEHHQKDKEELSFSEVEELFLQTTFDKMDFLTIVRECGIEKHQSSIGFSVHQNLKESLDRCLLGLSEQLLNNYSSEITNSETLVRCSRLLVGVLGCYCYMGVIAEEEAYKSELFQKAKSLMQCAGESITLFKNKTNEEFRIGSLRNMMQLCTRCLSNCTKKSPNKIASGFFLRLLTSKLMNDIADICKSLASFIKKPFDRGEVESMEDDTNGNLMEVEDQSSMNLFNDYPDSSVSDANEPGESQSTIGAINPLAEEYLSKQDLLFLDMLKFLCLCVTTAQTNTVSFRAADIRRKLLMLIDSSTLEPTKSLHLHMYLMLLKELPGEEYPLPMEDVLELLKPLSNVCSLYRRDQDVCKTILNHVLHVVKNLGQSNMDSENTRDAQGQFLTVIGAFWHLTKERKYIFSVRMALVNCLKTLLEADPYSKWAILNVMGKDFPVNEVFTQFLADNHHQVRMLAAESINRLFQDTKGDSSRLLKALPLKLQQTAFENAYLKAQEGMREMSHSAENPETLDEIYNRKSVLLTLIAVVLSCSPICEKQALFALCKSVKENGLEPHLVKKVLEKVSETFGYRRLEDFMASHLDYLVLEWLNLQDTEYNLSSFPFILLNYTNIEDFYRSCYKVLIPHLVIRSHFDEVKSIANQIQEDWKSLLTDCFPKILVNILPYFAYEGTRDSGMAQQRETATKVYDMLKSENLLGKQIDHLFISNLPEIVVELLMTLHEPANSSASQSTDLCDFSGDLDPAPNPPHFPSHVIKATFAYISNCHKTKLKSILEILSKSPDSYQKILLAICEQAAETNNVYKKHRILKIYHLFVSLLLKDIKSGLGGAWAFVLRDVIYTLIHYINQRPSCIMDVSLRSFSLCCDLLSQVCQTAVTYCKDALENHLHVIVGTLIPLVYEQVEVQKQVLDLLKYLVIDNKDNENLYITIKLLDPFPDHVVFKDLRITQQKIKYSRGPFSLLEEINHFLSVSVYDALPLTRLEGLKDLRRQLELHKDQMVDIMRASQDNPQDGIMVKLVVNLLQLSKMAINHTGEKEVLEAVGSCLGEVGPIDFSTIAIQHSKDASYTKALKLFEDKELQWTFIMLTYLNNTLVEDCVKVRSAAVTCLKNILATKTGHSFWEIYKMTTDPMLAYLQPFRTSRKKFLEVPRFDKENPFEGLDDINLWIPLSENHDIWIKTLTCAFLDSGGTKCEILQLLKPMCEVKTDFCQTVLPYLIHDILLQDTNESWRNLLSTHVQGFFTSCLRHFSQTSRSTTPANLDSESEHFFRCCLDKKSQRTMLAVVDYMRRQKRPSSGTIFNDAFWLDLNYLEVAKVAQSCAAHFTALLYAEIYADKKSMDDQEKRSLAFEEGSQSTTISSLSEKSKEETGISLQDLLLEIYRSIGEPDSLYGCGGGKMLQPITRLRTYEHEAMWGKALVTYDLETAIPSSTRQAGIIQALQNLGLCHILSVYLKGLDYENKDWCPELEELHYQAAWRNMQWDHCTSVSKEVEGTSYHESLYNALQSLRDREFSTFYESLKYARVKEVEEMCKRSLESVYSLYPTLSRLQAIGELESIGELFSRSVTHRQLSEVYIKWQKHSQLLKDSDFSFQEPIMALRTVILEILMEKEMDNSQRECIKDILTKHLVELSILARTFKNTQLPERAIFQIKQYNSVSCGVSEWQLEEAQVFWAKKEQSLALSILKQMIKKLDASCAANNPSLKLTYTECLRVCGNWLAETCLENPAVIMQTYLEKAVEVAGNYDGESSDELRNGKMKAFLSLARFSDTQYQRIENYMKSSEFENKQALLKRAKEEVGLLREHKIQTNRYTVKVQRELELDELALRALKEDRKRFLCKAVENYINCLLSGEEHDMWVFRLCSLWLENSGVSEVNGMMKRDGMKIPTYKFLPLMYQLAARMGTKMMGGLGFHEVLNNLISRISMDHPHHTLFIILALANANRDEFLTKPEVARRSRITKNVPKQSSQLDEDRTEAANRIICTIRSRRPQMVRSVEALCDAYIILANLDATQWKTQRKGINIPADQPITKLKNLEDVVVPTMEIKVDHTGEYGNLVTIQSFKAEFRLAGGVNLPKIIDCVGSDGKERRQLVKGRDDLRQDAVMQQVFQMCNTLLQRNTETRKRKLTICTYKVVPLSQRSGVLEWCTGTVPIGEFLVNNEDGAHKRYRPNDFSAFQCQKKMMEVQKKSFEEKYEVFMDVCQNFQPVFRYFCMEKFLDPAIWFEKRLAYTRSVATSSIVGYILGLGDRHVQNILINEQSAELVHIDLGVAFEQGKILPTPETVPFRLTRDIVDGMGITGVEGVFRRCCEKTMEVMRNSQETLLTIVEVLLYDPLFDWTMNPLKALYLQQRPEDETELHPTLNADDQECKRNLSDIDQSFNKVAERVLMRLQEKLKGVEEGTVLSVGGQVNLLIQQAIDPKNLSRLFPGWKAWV
T5 sequence (P22612 whole entry): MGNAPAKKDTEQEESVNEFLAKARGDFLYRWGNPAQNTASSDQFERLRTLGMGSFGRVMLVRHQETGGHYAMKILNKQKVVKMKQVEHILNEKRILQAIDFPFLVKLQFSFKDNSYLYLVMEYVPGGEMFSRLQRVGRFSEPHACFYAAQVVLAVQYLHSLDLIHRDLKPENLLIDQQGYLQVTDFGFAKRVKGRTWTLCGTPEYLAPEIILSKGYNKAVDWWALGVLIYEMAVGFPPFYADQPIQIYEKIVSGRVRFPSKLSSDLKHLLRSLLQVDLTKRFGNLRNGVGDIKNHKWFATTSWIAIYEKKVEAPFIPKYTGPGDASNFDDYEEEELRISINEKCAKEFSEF
Sequence of NRBP1 (Q9UHY1 whole entry): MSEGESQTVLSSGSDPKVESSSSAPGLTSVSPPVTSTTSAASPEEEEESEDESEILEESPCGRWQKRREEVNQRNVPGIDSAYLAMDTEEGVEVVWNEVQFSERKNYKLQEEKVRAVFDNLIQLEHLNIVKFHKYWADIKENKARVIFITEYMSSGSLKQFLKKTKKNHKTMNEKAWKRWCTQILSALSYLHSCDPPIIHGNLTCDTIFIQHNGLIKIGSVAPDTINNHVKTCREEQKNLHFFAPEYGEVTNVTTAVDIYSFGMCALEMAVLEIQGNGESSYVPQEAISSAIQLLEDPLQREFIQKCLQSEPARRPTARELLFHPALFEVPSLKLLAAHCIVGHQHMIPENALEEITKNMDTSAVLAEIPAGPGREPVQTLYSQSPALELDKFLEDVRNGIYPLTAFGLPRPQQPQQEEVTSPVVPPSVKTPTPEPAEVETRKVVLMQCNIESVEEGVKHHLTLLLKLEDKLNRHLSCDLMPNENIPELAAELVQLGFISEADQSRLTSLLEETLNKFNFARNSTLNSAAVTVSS
Description for NRBP1: as §2
Description for PSKH2: as §2

As for `Cc1ccc(NC(=O)c2ccc(CN3CCN(C)CC3)cc2)cc1Nc1nccc(-c2cccnc2)n1` [Imatinib], the pIC50 against NRBP1, against ATM [1], at PIK3R4 and against PSKH2 was less than 5.00 in each case.
Turning to `N#CCc1ccc(Nc2nc(NCCCN)cc(Nc3cc(C4CC4)[nH]n3)n2)cc1` [KAM], the pIC50 on ATM [2] (setting [3]), on SCYL1 (setting [3]), at GUCY2F (setting [3]) and at PRKACG (setting [3]) was less than 5.00 throughout. The “0.001 uM KAM” value at ATM [2] (relative to 0 uM KAM = 0) is -0.06745; on SCYL1 (relative to 0 uM KAM = 0), 0.01527; at GUCY2F (relative to 0 uM KAM = 0), -0.02463; on PRKACG (relative to 0 uM KAM = 0), -0.03855. Moreover, the “0.01 uM KAM” value at ATM [2] (relative to 0 uM KAM = 0) was -0.02165; at SCYL1 (relative to 0 uM KAM = 0), 0.01732; at GUCY2F (relative to 0 uM KAM = 0), -0.02113; on PRKACG (relative to 0 uM KAM = 0) it was 0.1471. In addition, the “0.1 uM KAM” value at ATM [2] (relative to 0 uM KAM = 0) is recorded as -0.03764; on SCYL1 (relative to 0 uM KAM = 0), 0.09163; on GUCY2F (relative to 0 uM KAM = 0), 0.03818; at PRKACG (relative to 0 uM KAM = 0), 0.178. The “1 uM KAM” value on ATM [2] (relative to 0 uM KAM = 0) is -0.07001; at SCYL1 (relative to 0 uM KAM = 0), 0.1255; on GUCY2F (relative to 0 uM KAM = 0), 0.1179; at PRKACG (relative to 0 uM KAM = 0), 0.2462. In addition, the “10 uM KAM” value on ATM [2] (relative to 0 uM KAM = 0) is 0.01755; on SCYL1 (relative to 0 uM KAM = 0), 0.1065; on GUCY2F (relative to 0 uM KAM = 0), -0.02163; on PRKACG (relative to 0 uM KAM = 0) it was 0.202.
